{
  "source": "patent US20140303092A1",
  "about": "(CHIMERIX, INC., priority 2011, published 2014)",
  "test_system": "CMV",
  "experiment": "Study HDP-CDV-201: prevention or control of CMV infection in R+ HSCT recipients (efficacy)",
  "type": "in vivo, human (adult allogeneic HSCT recipients)",
  "conditions": "for Time to CMV DNAemia (≧100 copies/mL), Mean / Number of Subjects who had CMV DNAemia (≧100 copies/mL) by the end of study / Time to CMV DNAemia (≧100 copies/mL), Median: CMV DNA negative at baseline; for Difference (HDP-CDV minus placebo) in rate of CMV DNAemia ≧1,000 copies/mL / Rate of CMV DNAemia ≧1,000 copies/mL during the treatment period: CMV modified strata: positive; for Discontinuation: Emergence of CMV disease / Discontinuation: Initiation of alternate CMV therapy: active treatment period",
  "procedure": "The clinical study of the current invention (HDP-CDV-201) was a 9-11 week randomized, placebo-controlled, double-blind, dose-escalation study (40 mg weekly [QW], 100 mg QW, 200 mg QW, 200 mg twice-weekly [BIW], and 100 mg BIW) of HDP-CDV for the prevention of CMV infection post-HCT. Treatment was initiated at the time of engraftment and continued until Week 13 post-HCT. HDP-CDV, at various doses, was active and well tolerated in the prevention CMV infection or disease.\nClinical Studies of HDP-CDV were performed and described in detail in the following Examples. For example, HDP-CDV-201 is a placebo-controlled, dose-escalating trial in HSCT CMV (R+) recipients, evaluating the ability of HDP-CDV to prevent or control CMV infection was carried out. Five cohorts were established in which participants or subjects received either placebo or the HDP-CDV orally, in doses ranging from 40 mg weekly (QW) to 200 mg twice weekly (BIW). Subjects who were post-HSCT were enrolled at the time of engraftment and randomized to HDP-CDV or placebo (3 to 1 ratio) and received blinded therapy until approximately 100 day post-transplantation. HDP-CDV doses were 40 mg QW, 100 mg QW, 200 mg QW, 200 mg BIW and 100 mg BIW. Escalation to the next dose was decided by the data monitoring committee after review of the safety data from the previous Cohort. Subjects who developed CMV disease or CMV infection requiring pre-emptive therapy with local standard of care were discontinued from blinded therapy and followed for 4 weeks. Subjects who completed treatment with blinded therapy were followed for 8 weeks post-therapy.\nThe primary endpoint was defined as the incidence of CMV disease at any time during treatment or CMV DNAemia≧200 copies/mL at the end of treatment. All subjects who received at least one dose of drug/placebo and had at least one efficacy evaluation post baseline were included in the primary analysis, regardless of their CMV DNAemia status (negative or positive) at baseline (mITT population). Results for the pooled HDP-CDV Cohorts and for each Cohort separately were analyzed versus that for pooled placebo.\nThe primary efficacy measure for this study was treatment failure, defined as the occurrence of CMV infection, defined as CMV DNAemia>200 copies/mL at the End of Treatment or diagnosis of CMV disease at any time during the treatment period. For the analysis, the following definitions apply:\nFor subjects who completed the treatment phase of the study, the End of Treatment was defined as the latest assessment from date of the last dose of study drug and up to 7 days for QW dosing, or the date of the last dose of study drug and up to 4 days for BIW dosing. For subjects who discontinued during the treatment phase of the study, the End of Treatment was defined as the date of the last dose of study drug.\nThe time to event was defined as the period between FDD and date of first occurrence of the event of interest (inclusive). The events included onset of CMV DNAemia, onset of CMV disease, and discontinuation because of excluded anti-CMV medications. Time to event/onset was derived as (the event/onset date—FDD)+1.\nAs detailed in the Statistical Analysis Plan, a modified CMV stratum was defined prior to conducting the statistical analysis based upon polymerase chain reaction (PCR) results from the central laboratory. If any positive CMV DNA value in plasma was collected before the first dose of study drug (including Screening, Pre-dose, (combined Screening/Pre-dose), CMV for stratification, and FDD), then the subject was placed into the modified CMV positive (≧100 copies/mL) stratum, otherwise the subject was in the modified CMV negative stratum. […]",
  "key": {"[1]": {"conditions": "200 mg BIW/QW, modified CMV negative stratum"}, "[2]": {"conditions": "200 mg BIW, CMV modified strata: negative"}, "[3]": {"conditions": "200 mg BIW, modified CMV negative stratum"}, "[4]": {"conditions": "200 mg QW, CMV modified strata: negative"}},
  "note": "Values joined by “and” are separate entries in the source; they are usually repeats but may differ in a detail not shown here. Equal entries are not always repeated.",
  "data": [
    {"smiles": "CCCCCCCCCCCCCCCCOCCCOP(=O)(O)COC(CO)Cn1ccc(N)nc1=O", "note": "(stereo not drawn) [HDP-CDV]", "values": [
      {"measurement": "Time to CMV DNAemia (≧100 copies/mL), Mean", "setting": "100 mg QW, treatment period, censored values not included", "value": 38.8, "unit": "days"},
      {"measurement": "Number of Subjects who had CMV DNAemia (≧100 copies/mL) by the end of study", "setting": "100 mg QW, whole study period", "value": 8},
      {"measurement": "Time to CMV DNAemia (≧100 copies/mL), Mean", "setting": "100 mg QW, whole study period", "value": 53.4, "unit": "days"},
      {"measurement": "Time to CMV DNAemia (≧100 copies/mL), Median", "setting": "100 mg QW, whole study period", "value": 38.5, "unit": "days"},
      {"measurement": "% CMV Event Rate: Incidence of CMV DNAemia >100 copies/mL During Treatment (Fisher analysis, ref 14.3.3.2.1)", "setting": "[1]", "value": "4 (18.2%) subjects (%)"},
      {"measurement": "% CMV Event Rate: Incidence of CMV DNAemia ≧1,000 copies/mL at any time during treatment", "setting": "[1]", "value": "0 subjects (%)"},
      {"measurement": "Difference (HDP-CDV minus placebo) in infection rate", "setting": "[2]", "value": "−16.2", "unit": "%"},
      {"measurement": "Difference (HDP-CDV minus placebo) in rate of CMV DNAemia ≧1,000 copies/ml", "setting": "[2]", "value": "−31.9", "unit": "%"},
      {"measurement": "Rate of CMV DNAemia ≧1,000 copies/ml during the treatment period", "setting": "[2]", "value": 0, "unit": "%"},
      {"measurement": "Rate of CMV Disease or End of Treatment CMV Infection", "setting": "[2]", "value": 13.6, "unit": "%"},
      {"measurement": "Difference (HDP-CDV minus placebo) in rate of CMV DNAemia ≧1,000 copies/mL", "setting": "200 mg BIW", "value": "−58.3", "unit": "%"},
      {"measurement": "Rate of CMV DNAemia ≧1,000 copies/mL during the treatment period", "setting": "200 mg BIW", "value": 25, "unit": "%"},
      {"measurement": "Rate of CMV Disease or End of Treatment CMV Infection", "setting": "200 mg BIW, aGVHD randomization strata: negative", "value": 24.1, "unit": "%"},
      {"measurement": "Difference (HDP-CDV minus placebo) in infection rate", "setting": "200 mg BIW, aGVHD strata: negative", "value": "−7.9", "unit": "%"},
      {"measurement": "Discontinuation: Emergence of CMV disease", "setting": "200 mg BIW", "value": "0 Subject n (%)"},
      {"measurement": "Discontinuation: Initiation of alternate CMV therapy", "setting": "200 mg BIW", "value": "5 (16.7%) Subject n (%)"},
      {"measurement": "Difference (HDP-CDV minus placebo) in rate of CMV DNAemia ≧1000 copies/mL", "setting": "200 mg BIW, mITT", "value": "−35.7", "unit": "%"},
      {"measurement": "Difference (HDP-CDV minus placebo) in rate of CMV disease or end of treatment CMV infection", "setting": "200 mg BIW, mITT", "value": "−14.0", "unit": "%"},
      {"measurement": "Subjects Receiving Antiviral Therapy and/or had CMV disease", "setting": "200 mg BIW, mITT", "value": "5 (16.7%) subjects (%)"},
      {"measurement": "Subjects without a CMV event", "setting": "200 mg BIW, mITT", "value": "25 (83.3%) subjects (%)"},
      {"measurement": "Time to Antiviral Therapy, Median", "setting": "200 mg BIW, mITT", "value": 15.0, "unit": "days"},
      {"measurement": "Rate of CMV Disease or End of Treatment CMV Infection (≧200 copies/ml)", "setting": "200 mg BIW, mITT, missing=infection", "value": "23% and 23.3%"},
      {"measurement": "Rate of CMV DNAemia ≧1000 copies/mL during the treatment period", "setting": "200 mg BIW, mITT, post hoc", "value": "7% and 6.7%"},
      {"measurement": "Time to Antiviral Therapy, Mean", "setting": "200 mg BIW, mITT, censored values not included", "value": 21.6, "unit": "days"},
      {"measurement": "Subjects Who Had CMV-related Event (CMV disease, CMV DNAemia ≧1,000 c/mL or initiation of anti-CMV treatment)", "setting": "[3]", "value": "3 (13.6%) subjects (%)"},
      {"measurement": "Subjects without a CMV-related event", "setting": "[3]", "value": "20 (86.4%) subjects (%)"},
      {"measurement": "Developed CMV DNAemia (≧100 copies/mL) during the treatment period", "setting": "200 mg BIW, plasma CMV DNA negative at baseline, mITT", "value": "4 (17.4%) N(%)"},
      {"measurement": "Time to CMV DNAemia (≧100 copies/mL), Median", "setting": "200 mg BIW, treatment period", "value": 25.5, "unit": "days"},
      {"measurement": "Time to CMV DNAemia (≧100 copies/mL), Mean", "setting": "200 mg BIW, treatment period, censored values not included", "value": 24.8, "unit": "days"},
      {"measurement": "Median Survival Time to CMV DNAemia (Kaplan-Meier)", "setting": "200 mg BIW, whole study period", "value": 130, "unit": "days"},
      {"measurement": "Number of Subjects who had CMV DNAemia (≧100 copies/mL) by the end of study", "setting": "200 mg BIW, whole study period", "value": 9},
      {"measurement": "Time to CMV DNAemia (≧100 copies/mL), Mean", "setting": "200 mg BIW, whole study period", "value": 49.0, "unit": "days"},
      {"measurement": "Time to CMV DNAemia (≧100 copies/mL), Median", "setting": "200 mg BIW, whole study period", "value": 42.0, "unit": "days"},
      {"measurement": "Difference (HDP-CDV minus placebo) in infection rate", "setting": "[4]", "value": "−9.1", "unit": "%"},
      {"measurement": "Difference (HDP-CDV minus placebo) in rate of CMV DNAemia ≧1,000 copies/ml", "setting": "[4]", "value": "−25.0", "unit": "%"},
      {"measurement": "Rate of CMV DNAemia ≧1,000 copies/ml during the treatment period", "setting": "[4]", "value": 6.9, "unit": "%"},
      {"measurement": "Rate of CMV Disease or End of Treatment CMV Infection", "setting": "[4]", "value": 20.7, "unit": "%"},
      {"measurement": "Difference (HDP-CDV minus placebo) in rate of CMV DNAemia ≧1,000 copies/mL", "setting": "200 mg QW", "value": "−33.3", "unit": "%"},
      {"measurement": "Rate of CMV DNAemia ≧1,000 copies/mL during the treatment period", "setting": "200 mg QW", "value": 50.0, "unit": "%"},
      {"measurement": "Rate of CMV Disease or End of Treatment CMV Infection", "setting": "200 mg QW, aGVHD randomization strata: negative", "value": 30.8, "unit": "%"},
      {"measurement": "Difference (HDP-CDV minus placebo) in infection rate", "setting": "200 mg QW, aGVHD strata: negative", "value": "−1.3", "unit": "%"},
      {"measurement": "Discontinuation: Emergence of CMV disease", "setting": "200 mg QW", "value": "0 Subject n (%)"},
      {"measurement": "Discontinuation: Initiation of alternate CMV therapy", "setting": "200 mg QW", "value": "7 (17.9%) Subject n (%)"},
      {"measurement": "Difference (HDP-CDV minus placebo) in rate of CMV DNAemia ≧1000 copies/mL", "setting": "200 mg QW, mITT", "value": "−24.4", "unit": "%"},
      {"measurement": "Difference (HDP-CDV minus placebo) in rate of CMV disease or end of treatment CMV infection", "setting": "200 mg QW, mITT", "value": "−6.5", "unit": "%"}
    ]}
  ]
}
